Measured values as given in PMC6358866 (International Journal of Molecular Sciences, 2019).

Key:
[1] = test system: Staphylococus aureus ATCC 6538 biofilm; assay: Activity against biofilms on 96-well plates after withdrawal of the antimicrobial (additional 24 h in MHB II); assay type: cell-based, Staphylococcus aureus; details: after withdrawal and additional 24 h in MHB II; for MBEC II 50: lowest concentration giving permanent reduction of metabolic activity by at least 50 ± 5%; for MBEC II 90: lowest concentration giving permanent reduction of metabolic activity by at least 90 ± 5%
Experimental: (§1) Bacterial strains were obtained from the Polish Collection of Microorganisms (Polish Academy of Science, Wroclaw, Poland). Three Gram-positive and two Gram-negative strains linked with CL-related infections were chosen for the study (Staphylococus aureus ATCC 6538, Staphylococcus epidermidis ATCC 14990, Pseudomonas aeruginosa ATCC 9027, Escherichia coli ATCC 25922, and Enterococcus faecalis ATCC 29212). The bacteria were cultured in a Mueller Hinton Broth II (MHB, Biocorp, Warsaw, Poland) overnight, under aerobic conditions at 37 °C. […] Bacterial suspensions were added to 96-well plates (Kartell, Noviglio, Italy) at initial inoculums of ca. 5 × 10^8 CFU/mL and incubated under aerobic conditions with shaking (120 rpm) at 37 °C for 24 h. […] After exposure, the wells were washed three times with PBS and a solution of resazurin (Sigma Aldrich, St. […] This cell viability reagent is metabolized by bacterial dehydrogenases upon contact with living cells. As a result, the blue dye is reduced to a pink resorufin. After 1.5 h of incubation, the absorbance was measured at 570 and 600 nm using a microplate reader (Thermo Fisher Scientific, Waltham, MA, USA). […] The procedure was conducted as described in Section 4.3, with the difference that after exposure to antimicrobials, the wells were washed three times with PBS and pure MHB II was added. The samples were incubated for another 24 h (aerobic conditions, 120 rpm shaking, 37 °C). […] The absorbance was measured at the same wave lengths and metabolic activity was calculated according to the formula given in Section 4.3. The presented results are means of nine results obtained on three different days.

[2] = test system: Staphylococus aureus ATCC 6538 biofilm; assay: Activity against biofilms formed on polystyrene 96-well plates, 24 h exposure, resazurin; assay type: cell-based, Staphylococcus aureus; details: polystyrene plate, 24 h exposure in MHB II, resazurin; for MBEC 50: lowest concentration reducing metabolic activity by at least 50 ± 5%; for MBEC 90: lowest concentration reducing metabolic activity by at least 90 ± 5%, mean of nine results
Experimental: (§2) Bacterial strains were obtained from the Polish Collection of Microorganisms (Polish Academy of Science, Wroclaw, Poland). […] The bacteria were cultured in a Mueller Hinton Broth II (MHB, Biocorp, Warsaw, Poland) overnight, under aerobic conditions at 37 °C. After incubation, the liquid cultures were centrifuged (2500 rpm for 10 min) and washed with phosphoric buffer (PBS, AppliChem, Darmstadt, Germany) three times and resuspended in fresh MHB II for inoculums appropriate for the performed assays.
(§3) Bacterial suspensions were added to 96-well plates (Kartell, Noviglio, Italy) at initial inoculums of ca. 5 × 10^8 CFU/mL and incubated under aerobic conditions with shaking (120 rpm) at 37 °C for 24 h. […] After exposure, the wells were washed three times with PBS and a solution of resazurin (Sigma Aldrich, St. Louis, MO, USA) in MHB II (0.01%) was added. This cell viability reagent is metabolized by bacterial dehydrogenases upon contact with living cells. As a result, the blue dye is reduced to a pink resorufin. After 1.5 h of incubation, the absorbance was measured at 570 and 600 nm using a microplate reader (Thermo Fisher Scientific, Waltham, MA, USA). […] The metabolic activity of bacteria in the samples was measured according to the following formula:
(§4) Metabolic activity (%) = (ΔAbs of sample − ΔAbs of negative control)/(ΔAbs of positive control − ΔAbs of negative control);
(§5) ΔAbs = absorbance at 570 nm − absorbance at 600 nm;
(§6) The presented results are the means of nine results obtained on three different days.

[3] = test system: Pseudomonas aeruginosa ATCC 9027 biofilm; assay: Activity against biofilms on 96-well plates after withdrawal of the antimicrobial (additional 24 h in MHB II); assay type: cell-based; details: for effect of pretreatment on biofilm after withdrawal: PA biofilm on polystyrene, concentrations lower than 32 mg/L, after withdrawal and additional 24 h
Experimental: as §1

[4] = test system: Enterococcus faecalis ATCC 29212 biofilm; assay: as above; assay type: cell-based; details: after withdrawal and additional 24 h in MHB II
Experimental: as §1

[5] = test system: Staphylococcus epidermidis ATCC 14990 biofilm; assay: as above; assay type: cell-based; details: after withdrawal and additional 24 h in MHB II; for MBEC II 50: lowest concentration giving permanent reduction of metabolic activity by at least 50 ± 5%; for MBEC II 90: lowest concentration giving permanent reduction of metabolic activity by at least 90 ± 5%
Experimental: as §1

[6] = test system: Escherichia coli ATCC 25922 biofilm; assay: as above; assay type: cell-based; details: after withdrawal and additional 24 h in MHB II
Experimental: as §1

[7] = test system: Pseudomonas aeruginosa ATCC 9027 biofilm; assay: Activity against biofilms formed on polystyrene 96-well plates, 24 h exposure, resazurin; assay type: cell-based; details: for MBEC 50: lowest concentration reducing metabolic activity by at least 50 ± 5%; for MBEC 50 / MBEC 90: polystyrene plate, 24 h exposure in MHB II, resazurin; for MBEC 90: lowest concentration reducing metabolic activity by at least 90 ± 5%, mean of nine results
Experimental: as §2, §3, §4, §5, §6

[8] = test system: Enterococcus faecalis ATCC 29212 biofilm; assay: as above; assay type: cell-based; details: polystyrene plate, 24 h exposure in MHB II; for MBEC 50: lowest concentration reducing metabolic activity by at least 50 ± 5%
Experimental: as §2, §3, §4, §5, §6

[9] = test system: Staphylococcus epidermidis ATCC 14990 biofilm; assay: as above; assay type: cell-based; details: for MBEC 50: lowest concentration reducing metabolic activity by at least 50 ± 5%; for MBEC 50 / MBEC 90: polystyrene plate, 24 h exposure in MHB II, resazurin; for MBEC 90: lowest concentration reducing metabolic activity by at least 90 ± 5%, mean of nine results
Experimental: as §2, §3, §4, §5, §6

[10] = test system: Escherichia coli ATCC 25922 biofilm; assay: as above; assay type: cell-based; details: polystyrene plate, 24 h exposure in MHB II; for MBEC 50: lowest concentration reducing metabolic activity by at least 50 ± 5%
Experimental: as §2, §3, §4, §5, §6

[11] = test system: human cells (keratinocytes, erythrocytes); details: cited from earlier work
From the text: PA was also the most difficult strain to eliminate from the surface of CL in the previous study, in which we investigated amphibian peptides and short lipopeptides containing hexadecanoic acid according to their potential application as CL solution additives. The results of performed antimicrobial assays were also very promising. However, due to high toxicity towards human keratinocytes in vitro, the ocular applications of lipopeptides with hexadecanoic acid are not worth further consideration. In contrast to those lipopeptides, the compound with two residues of decanoic aci ... || The excellent antimicrobial activity was previously reported for many lipopeptides. This, along with the relatively low production costs, has encouraged many research groups to study their antimicrobial activities and design molecules with optimal properties. C16-KK-NH2 is one of such extensively studied compounds. […] Other derivatives ...

[12] = lowest concentration giving permanent reduction of metabolic activity by at least 50 ± 5%
[13] = lowest concentration giving permanent reduction of metabolic activity by at least 90 ± 5%
[14] = lowest concentration reducing metabolic activity by at least 90 ± 5%, mean of nine results

In the case of `O=C(N[C@H](CO)[C@H](O)c1ccc([N+](=O)[O-])cc1)C(Cl)Cl` [Chloramphenicol], the “MBEC II 50” value [1] was greater than 256 µg/mL, the “MBEC II 90” value [1] was greater than 256 µg/mL and the “MBEC 50” value [2] was 128 mg/L. For the same molecule, the “MBEC 90” value [2] was greater than 256 mg/L, the “effect of pretreatment on biofilm after withdrawal” value [3] was “significant promotion of biofilm growth” and the “MBEC II 50” value ([3]; lowest concentration giving permanent reduction of metabolic activity by at least 50 ± 5%, after withdrawal and additional 24 h in MHB II) was 256 µg/mL. For the same molecule, the “MBEC II 90” value ([3]; lowest concentration giving permanent reduction of metabolic activity by at least 90 ± 5%, after withdrawal and additional 24 h in MHB II) was greater than 256 µg/mL, the “MBEC II 50” value [4, 12] was greater than 256 µg/mL and the “MBEC II 90” value [4, 13] was greater than 256 µg/mL. For the same molecule, the “MBEC II 50” value [5] was greater than 256 µg/mL, the “MBEC II 90” value [5] was greater than 256 µg/mL and the “MBEC II 50” value [6, 12] was greater than 256 µg/mL. The “MBEC II 90” value [6, 13] was greater than 256 µg/mL, the “reduction of metabolic activities” value ([7]; PA biofilm on polystyrene, 24 h exposure, 32–64 mg/L) was roughly 70% and the “MBEC 50” value [7] was 4 mg/L. The “MBEC 90” value [7] was 128 mg/L, the “MBEC 50” value [8] was 32 mg/L and the “MBEC 90” value [8, 14] was greater than 256 mg/L. The “metabolic activity of bacteria” value ([9]; SE biofilm on polystyrene, 24 h exposure, 64 mg/L) was roughly 25%, the “MBEC 50” value [9] was 32 mg/L and the “MBEC 90” value [9] was 256 mg/L. The “MBEC 50” value [10] was 8 mg/L and the “MBEC 90” value [10, 14] was 16 mg/L.
In the case of C16-KK-NH2, the “toxicity towards human cells” value [11] is listed as “high toxicity”.
For neomycin (sulfate), the “MBEC II 50” value [1] was 64 µg/mL, the “MBEC II 90” value [1] was 64 µg/mL and the “MBEC 50” value [2] was 4 mg/L. For the same molecule, the “MBEC 90” value [2] was 64 mg/L, the “effect of pretreatment on biofilm after withdrawal” value [3] was “enhanced metabolism of bacteria in comparison to the positive control” and the “concentration giving a permanent antibiofilm effect” value ([5]; SE biofilm on polystyrene) was 16 mg/L. For the same molecule, the “MBEC II 50” value [5] was 8 µg/mL, the “MBEC II 90” value [5] was 16 µg/mL and the “reduction of metabolic activity” value ([7]; PA biofilm on polystyrene, 24 h exposure, 32 mg/L) was 75%. The “MBEC 50” value [7] was 8 mg/L, the “MBEC 90” value [7] was 64 mg/L and the “MBEC 50” value [8] was 64 mg/L. The “MBEC 50” value [9] was no more than 1 mg/L, the “MBEC 90” value [9] was 16 mg/L and the “MBEC 50” value [10] was 8 mg/L.
